From US6962930B1, “Compounds, compositions and method suitable for amelioration of withdrawal syndromes and withdrawal-induced brain damage” (Lohocla Research Corporation, priority 1997, dated 2005)

Columns and labels:
[1] = tested on: primary cultures of rat cerebellar granule cells; assay: Glutamate-induced excitotoxic cell death, fluorescein assay; format: cell-based
Procedure: Primary cultures of cerebellar granule cells were prepared from 6- to 8-day old Sprague-Dawley rats. A description of this procedure can be found in Iorio, K. R., et al., “CHRONIC EXPOSURE OF CEREBELLAR GRANULE CELLS TO ETHANOL RESULTS IN INCREASED N-METHYL-D-ASPARTATE RECEPTOR FUNCTION,” Mol. Pharmacol., 41 1142–1148 (1992), the relevant disclosures of which are incorporated herein by reference. The cultures were maintained in plates containing 24 wells of 1 ml each. Culture density was about 1.5×10^6 cells/ml. Cell viability was assayed after 7–8 days in culture by the production of fluorescein, formed from fluorescein diacetate by esterases present in living cells. […]
Cells were washed with Mg^2+-free Locke's buffer, and then exposed to glutamate alone or glutamate in the presence of 10, 30, or 100 μM DCUK-OMe at 25° C. for 30 minutes. […] For each study, the fluorescence value of a control culture (i.e., not exposed to glutamate) was set to 35,000 fluorescence units, and fluorescence values in all other cultures determined using the same spectrofluorometric settings were normalized to that value. […] The data are then expressed as the percent cell death relative to the control cultures.

[2] = tested on: audiogenic seizures in DBA/2J mice; assay: Audiogenic seizures; format: in vivo; settings: 100 or 500 mg/kg, about 90 minutes before stimulus
Procedure: Male DBA/2J mice (20–22 days old; 8–12 g) were used to evaluate the effects of DCUK-OMe in an animal model of partial seizures. A description of this test for audiogenic seizures can be found in Engstrom, F. L., et al., “SEIZURE SUSCEPTIBILITY IN DBA AND C57 MICE: THE EFFECTS OF VARIOUS CONVULSANTS,” Epilepsia., 29 389–395 (1988), the relevant disclosures of which are incorporated herein by reference. Mice were injected with either vehicle (5% Tween-80, 20% Intralipid) or 100 mg/kg or 500 mg/kg DCUK-OMe suspended in the vehicle about 90 minutes before being placed into a testing chamber having a size of about 6 inches (about 15.2 cm) diameter×about 20 inches (about 50.8 cm) height enclosed in a sound-attenuated box. After a 15–20 second habituation period, a high-intensity auditory stimulus (ringing doorbell, 12–16 kHz, 109 db) was activated for 30 seconds or until tonic hindlimb extension occurred. The seizure response in these mice was characterized by a progression of a wild running behavior, followed by loss of righting and clonus of the forelimbs, followed by tonic hindlimb extension, and finally respiratory arrest. The number of mice showing each response was recorded. […] Data were analyzed by the Fisher Exact Test. In FIG. 8, * denotes P<0.05 compared to vehicle injected mice.

[3] = target: T1, NR1a/NR2B recombinant receptors (Homo sapiens, UniProt Q05586+Q13224); assay: NMDA-induced currents in oocytes expressing NR1a/NR2B; format: cell-based; settings: 100 μM NMDA, 0.3 μM glycine, oocytes; read-out: IC50, inhibition of NMDA-induced currents
T1 construct: expressed in transfected cells; host or cells: Xenopus laevis oocytes, nuclear cDNA injection
Procedure: (§1) Oocytes were obtained from Xenopus laevis frogs (Nasco or Xenopus I) kept in aquarium tanks at 19–21° C., on a 12 hr light/dark cycle. Mature females were anesthetized by immersion for approximately 30 min in a 0.12% 3-aminobenzoic acid ethyl ester solution, a small incision was made in the abdominal wall and a piece of ovary was removed and placed in Modified Barth's solution (MBS; in mM) containing 88 NaCl, 1 KCl, 10 HEPES, 0.82 MgSO4, 2.4 NaHCO3, 0.91 CaCl2, 0.33 Ca(NO3)2 (pH 7.5). To facilitate manual dissection of oocytes, a section of ovary was transferred from MBS to a hypertonic buffer containing 108 mM NaCl, 2 mM KCl, 2 mM EDTA, 10 mM HEPES, pH 7.5 and theca and epithelial layers of mature oocytes (stages V and VI) were removed with surgical forceps. The follicular layer was removed by a 10 min immersion in 0.5 mg/ml of collagenase in buffer containing 83 mM NaCl, 2 mM KCl, 1 mM MgCl2 and 5 mM HEPES.
(§2) Human NR1a, NR2A and NR2B cDNAs in pCDNA-1Amp were transformed and amplified in XL-1 Blue cells and purified with the MaxPrep Qiagen kit. Oocytes were injected with cDNA into the nucleus in the following concentrations: NR1a/2A cDNAs 0.75 ng/30 nl 1:1 ratio, NR1a/2B cDNAs 3.0 ng/30 nl: 1:1 ratio. Injections were made with micropipettes (10 μm tip diameter) connected to a Drummond micropipettor attached to a micromanipulator. After injection, oocytes were individually placed in wells of 96-well microtiter plates containing incubation medium (MBS supplemented with 10 mg/l streptomycin, 10,000 U/l penicillin G, 50 mg/l gentamicin, 2 mM sodium pyruvate, 0.5 mM theophylline) that had been sterilized by passage through a […]. Oocytes were incubated at 19° C. for 2 to 4 days after injection.
(§3) Oocytes were placed in a rectangular chamber (approximately […]) and perfused (2 ml/min) with frog Ringer (in mM) containing 115 NaCl, 2.5 KCl, 1.8 CaCl2, 10 HEPES (pH 7.2). […] Control responses were always measured before and after addition of the DCUKA. […] Data are expressed as the % inhibition of the agonist response obtained in the absence of the drug.

[4] = target: T2, NR1a/NR2B recombinant receptors (Homo sapiens, UniProt Q05586); assay: as above; format: cell-based; settings: 100 μM NMDA, 50 μM DCUKA, increasing glycine
T2 construct: expressed in transfected cells; host or cells: Xenopus laevis oocytes, nuclear cDNA injection
Procedure: as §1, §2, §3

| IC50 [3] [µM] | reversal by glycine of inhibition of NMDA-induced currents [4] | SMILES | protection from glutamate-induced cell death ([1]; 100 μM) | effect on glutamate-induced cell death ([1]; 10, 30 or 100 μM, 30 minutes with glutamate) | frequency of clonic audiogenic seizures [2] |
| --- | --- | --- | --- | --- | --- |
| – | – | COC(=O)c1cc(NC(=O)N(c2ccccc2)c2ccccc2)c2c(Cl)cc(Cl)cc2n1 [DCUK-OMe, (N,N-diphenyl)-4-ureido-5,7-dichloro-2-carboxy-quinoline methyl ester] | complete protection | can block glutamate-induced cell death in a concentration-dependent manner | suppression of audiogenic seizures |
| 20.7 | completely reversed at 10 μM glycine | O=C(O)c1cc(NC(=O)N(c2ccccc2)c2ccccc2)c2c(Cl)cc(Cl)cc2n1 [DCUKA, (N,N-diphenyl)-4-ureido-5,7-dichloro-2-carboxy-quinoline] | – | – | – |
